According to patent US20260176289A1, “SMALL MOLECULE INHIBITORS OF KRAS PROTEINS” (Merck Sharp & Dohme LLC, priority 2022, published 2026):
Read-outs that look alike come from different tables or passages of the source.

Key:
[1] = biological target: KRAS-WT (Homo sapiens, UniProt P01116); experiment: SOS-catalyzed nucleotide exchange assay (Procedure A, TR-FRET), KRAS-WT; format: biochemical; conditions: nucleotide exchange, read-out: KRAS WT GNE IC50
Summary of the method: (§1)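 Biotinylated RAS (KRAS-G12C carries C51S/C80L/C118S; others WT background) preloaded with Bodipy-GDP plus Tb-streptavidin, preincubated with compound 60 min at RT, then human SOS and 3 mM GTP added. Final RAS/SOS: G12C 3 nM/40 nM, 60 min; WT 1 nM/40 nM, 60 min; G12V 1.25 nM/160 nM, 90 min; NRAS 1.25 nM/40 nM, 60 min. TR-FRET 520/495 ratio normalized to DMSO and saturating inhibitor; 10-point curves fit four-parameter logistic.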

[2] = biological target: KRAS-G12C (C51S/C80L/C118S) (Homo sapiens, UniProt P01116, C118S/C51S/C80L/G12C); experiment: SOS-catalyzed nucleotide exchange assay (Procedure A, TR-FRET), KRAS-G12C; format: biochemical; conditions: nucleotide exchange, Procedure A; read-out: KRAS G12C GNE IC50
KRAS-G12C (C51S/C80L/C118S), sequence (P01116 with tags, fused parts or gaps isoform P01116-2 G12C/C51S/C80L/C118S): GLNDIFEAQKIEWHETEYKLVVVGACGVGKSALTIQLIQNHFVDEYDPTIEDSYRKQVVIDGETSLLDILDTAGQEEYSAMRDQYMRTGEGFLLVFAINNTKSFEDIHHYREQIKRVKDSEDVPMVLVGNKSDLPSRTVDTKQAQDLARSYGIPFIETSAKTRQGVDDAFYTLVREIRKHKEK
Summary of the method: as §1

[3] = biological target: KRAS-G12D (Homo sapiens, UniProt P01116, G12D); experiment: SOS-catalyzed nucleotide exchange assay (Procedure A, TR-FRET), KRAS-G12D; format: biochemical; conditions: nucleotide exchange, read-out: KRAS G12D GNE IC50
KRAS-G12D, sequence (P01116 with tags, fused parts or gaps isoform P01116-2 G12D): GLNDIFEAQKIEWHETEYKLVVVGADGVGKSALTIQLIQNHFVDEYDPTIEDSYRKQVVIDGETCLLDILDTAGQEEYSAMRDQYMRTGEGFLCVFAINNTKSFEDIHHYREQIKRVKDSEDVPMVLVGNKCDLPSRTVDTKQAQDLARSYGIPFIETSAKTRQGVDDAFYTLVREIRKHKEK
Summary of the method: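 Signal ratio (520/495 nm, excitation 340 nm) reports Bodipy-GDP retention on biotinylated RAS after SOS-catalyzed exchange with 3 mM GTP. SOS was 40 nM, except 160 nM for G12V. Room-temperature exchange lasted 60 min (90 min for G12V), following a 60 min compound preincubation.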

[4] = biological target: KRAS-G12V (Homo sapiens, UniProt P01116, G12V); experiment: SOS-catalyzed nucleotide exchange assay (Procedure A, TR-FRET), KRAS-G12V; format: biochemical; conditions: nucleotide exchange, read-out: KRAS G12V GNE IC50
KRAS-G12V, sequence (P01116 with tags, fused parts or gaps isoform P01116-2 G12V): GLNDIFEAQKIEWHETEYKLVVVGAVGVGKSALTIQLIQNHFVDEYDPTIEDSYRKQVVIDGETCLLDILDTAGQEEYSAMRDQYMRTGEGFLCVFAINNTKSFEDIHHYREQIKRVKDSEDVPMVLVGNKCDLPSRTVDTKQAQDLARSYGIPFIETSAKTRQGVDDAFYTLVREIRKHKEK
Summary of the method: as §1

[5] = biological target: KRAS-G13D (Homo sapiens, UniProt P01116, G13D); experiment: SOS-catalyzed nucleotide exchange assay (Procedure A, TR-FRET), KRAS-G13D; format: biochemical; conditions: nucleotide exchange, Procedure A; read-out: KRAS G13D GNE IC50
KRAS-G13D, sequence (P01116 with tags, fused parts or gaps isoform P01116-2 G13D): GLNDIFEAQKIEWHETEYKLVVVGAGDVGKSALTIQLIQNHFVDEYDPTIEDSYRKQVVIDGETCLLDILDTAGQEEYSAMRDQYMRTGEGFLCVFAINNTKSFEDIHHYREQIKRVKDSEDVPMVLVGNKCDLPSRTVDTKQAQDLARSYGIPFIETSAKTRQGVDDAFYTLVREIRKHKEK

[6] = biological target: HRAS (Homo sapiens, UniProt P01112); experiment: SOS-catalyzed nucleotide exchange assay (Procedure A, TR-FRET), HRAS; format: biochemical; conditions: read-out: HRAS GNE IC50
HRAS, sequence (P01112 with tags, fused parts or gaps): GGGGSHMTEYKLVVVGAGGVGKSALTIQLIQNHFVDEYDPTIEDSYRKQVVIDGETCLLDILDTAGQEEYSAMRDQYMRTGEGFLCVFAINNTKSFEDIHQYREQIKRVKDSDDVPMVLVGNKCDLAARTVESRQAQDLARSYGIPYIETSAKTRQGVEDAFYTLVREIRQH
Text: (§2) Procedure for SOS-Catalyzed Nucleotide Exchange Assay for KRAS-WT, G12C/D/V, G13D, HRAS, and NRAS (Procedure A)
(§3) Recombinant KRAS-G12C protein used in this assay has an additional triple mutation (C51S/C80L/C118S). Whereas KRAS-WT, G12D/V, G13D, HRAS and NRAS are in context of their WT protein sequence background. Specifically, the SOS-catalyzed nucleotide exchange assay utilizes a preformed TR-FRET complex containing a specific biotinylated RAS protein (KRAS-WT, G12C/V/D, G13D, HRAS, NRAS; described above) with Bodipy-GDP, and Terbium-streptavidin. Compounds are preincubated with this complex for 60 minutes. Subsequently, recombinant human SOS protein and unlabeled GTP are added to initiate the exchange reaction. Small molecule inhibitors stabilize the Bodipy-GDP complex whereas the untreated protein rapidly exchanges Bodipy-GDP for unlabeled GTP resulting in reduced TR-FRET signal.
(§4) To assemble the preformed TR-FRET complexes, each biotinylated RAS protein is diluted to 2 μM in an EDTA Buffer (20 mM HEPES pH 7.5, 50 mM sodium chloride, 10 mM EDTA, and 0.01% Tween) and incubated at room temperature for one hour. This mixture is then further diluted to 90 nM in an Assay Buffer (20 mM HEPES pH 7.5, 150 mM sodium chloride, 10 mM magnesium chloride, and 0.005% Tween) containing 15 nM of Terbium-Streptavidin (Invitrogen, catalog #PV3577) and 900 nM of Bodipy-GDP (Invitrogen, catalog #G22360) and incubated at room temperature for six hours. It should be noted that this preformed TR-FRET complex for each of the RAS protein were made ahead of time, aliquoted and stored at −80° C. until the day of the experiment.
(§5) Each test compound (10 mM stock in DMSO) is diluted in DMSO to make a final-10-point, 3-fold dilution and is acoustically dispensed into a 384-well assay plate (Corning, catalog #3820) using an Echo 550 (Labcyte). Each well of the assay plate receives 3 μL of a specific 3×RAS preformed TR-FRET complex and 3 μL of Assay Buffer and is incubated at room temperature for 60 minutes (preincubation time). Each well then receives 3 μL of 3×recombinant human SOS protein and GTP (Sigma, G8877) in Assay Buffer and is incubated at room temperature for 30 minutes (G13D), 60 minutes (KRAS WT/G12C/D, H/NRAS) or 90 minutes for G12V. The final reaction in each well of 9 μL consists of 3 mM GTP, specific Ras and SOS proteins in the following concentrations: KRAS-G12C/SOS=3 nM/40 nM, KRAS-WT and G12D/SOS=1 nM/40 nM, KRAS-G12V/SOS=1.25 nM/160 nM. KRAS-G13D/SOS=1.25 nM/0 nM, HRAS and NRAS=1.25 nM/40 nM.
(§6) The time-resolved fluorescence resonance energy transfer (TR-FRET) signal is measured on an Envision (PerkinElmer) plate reader: Excitation filter=340 nm; emission 1=495 nm; emission2=520 nm; dichroic mirror=D400/D505; delay time=[…]. The signal of each well is determined as the ratio of the emission at 520 nm to that at 495 nm. Percent effect of each well is determined after normalization to control wells containing DMSO (no effect) or a saturating concentration of inhibitor (max effect). The apparent effect as a function of compound concentration is fit to a four-parameter logistic equation.

[7] = biological target: NRAS (Homo sapiens, UniProt P01111); experiment: SOS-catalyzed nucleotide exchange assay (Procedure A, TR-FRET), NRAS; format: biochemical; conditions: read-out: NRAS GNE IC50
NRAS, sequence (P01111 with tags, fused parts or gaps): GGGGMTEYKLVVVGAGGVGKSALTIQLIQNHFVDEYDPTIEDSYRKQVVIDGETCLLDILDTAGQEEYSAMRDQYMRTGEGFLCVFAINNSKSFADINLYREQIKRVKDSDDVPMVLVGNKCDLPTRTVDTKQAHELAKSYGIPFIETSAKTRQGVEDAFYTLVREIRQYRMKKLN
Text: as §2, §3, §4
as §5, with “The final reaction in each well of 9 μL consists of 3 mM GTP, specific Ras and SOS proteins in the following concentrations: KRAS-G12C/SOS=3 nM/40 nM, KRAS-WT and G12D/SOS=1 nM/40 nM, KRAS-G12V/SOS=1.25 nM/160 nM. KRAS-G13D/SOS=1.25 nM/0 nM, HRAS and NRAS=1.25 nM/40 nM.” left out
as §6, with “The apparent effect as a function of compound concentration is fit to a four-parameter logistic equation.” left out

[8] = system: MKN-1 cells; experiment: Cellular phospho-ERK assay, MKN-1 cells (amplified wild-type KRAS); format: cell-based; conditions: Homo sapiens, read-out: MKN1 pERK IC50
Summary of the method: (§7)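 10k–15k cells/well, o/n attach; cpd 2 h, 37 °C, 10-pt 1:3 from 30 μM final; lyse with protease/phosphatase inhibitors 30 min RT; multiplex SureFire p-ERK + total ERK; IC50 via 4PL on ratio.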

[9] = system: AsPC-1 cells; experiment: Cellular phospho-ERK assay, AsPC-1 cells (homozygous KRAS-G12D); format: cell-based; conditions: Homo sapiens, ASPC1, 2 h, read-out: AsPC1 pERK IC50
Summary of the method: as §7

[10] = system: SW620 cells; experiment: Cellular phospho-ERK assay, SW620 cells (homozygous KRAS-G12V); format: cell-based; conditions: Homo sapiens, read-out: SW620 pERK IC50
Summary of the method: as §7

[11] = system: PANC08.13 cells; experiment: Cellular phospho-ERK assay, PANC08.13 cells (homozygous KRAS-G12D); format: cell-based; conditions: Homo sapiens, PANC-08-13, KRAS-G12D, 2 hours, read-out: PANC-08.13 pERK IC50
Summary of the method: as §7

[12] = amplified wild-type KRAS, 2 hours
[13] = SW-620, 2 hours compound incubation

KRAS-WT, sequence (P01116 with tags, fused parts or gaps isoform P01116-2): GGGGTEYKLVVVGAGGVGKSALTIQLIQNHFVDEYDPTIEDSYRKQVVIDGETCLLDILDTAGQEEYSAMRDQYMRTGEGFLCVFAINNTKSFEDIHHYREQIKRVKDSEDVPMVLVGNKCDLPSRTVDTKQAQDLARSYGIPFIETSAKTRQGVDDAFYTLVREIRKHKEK

| Compound | IC50 [1] | IC50 [2] | IC50 [3] | IC50 [4] | IC50 [5] | IC50 [6] | IC50 [7] | IC50 [8, 12] | IC50 ([9]; KRAS-G12D, 2 hours) | IC50 ([10]; SW-620, KRAS-G12V, 2 hours) | IC50 ([8]; 2 hours compound incubation) | IC50 ([9]; 2 hours compound incubation) | IC50 [10, 13] | IC50 [11] |
| --- | --- | --- | --- | --- | --- | --- | --- | --- | --- | --- | --- | --- | --- | --- |
| CN(C)C[C@@]1(COc2nc(N3CCOC[C@@](C)(O)C3)c3c(n2)sc2c(-c4c(C5CC5)c(Cl)cc5[nH]ncc45)nccc23)CC1(F)F [Ex-131, (6S)-4-(8-(6-chloro-5-cyclopropyl-1H-indazol-4-yl)-2-(((R)-1-((dimeth-ylamino)methyl)-2,2-difluorocyclo-propyl)methoxy)-pyrido[4′,3′:4,5]thieno[2,3-d]pyr-imidin-4-yl)-6-methyl-1,4-oxaze-pan-6-ol] | 11.3 nM | 97.9 nM | 3.57 nM | 18.2 nM | 7.21 nM | 389 nM | 5160 nM | 22.8 nM | 21.8 nM | 15.1 nM |  |  |  |  |
| C#Cc1csc2cc3[nH]ncc3c(-c3nccc4c3sc3nc(OC[C@@]56CCCN5C[C@H](F)C6)nc(N5CCOC[C@@](C)(O)C5)c34)c12 [Ex-163, (6S)-4-(8-(5-ethyn-yl-1H-thieno[3,2-f]indazol-4-yl)-2-(((2R,7aS)-2-fluoro-tetrahydro-1H-pyr-rolizin-7a(5H)-yl)-methoxy)pyrido [4′,3′:4,5]thieno[2,3-d]pyrimidin-4-yl)-6-methyl-1,4-oxaze-pan-6-ol] | 3.79 nM | 19.8 nM | 2.36 nM | 4.53 nM | 3.13 nM | 1450 nM | 7370 nM |  |  |  | 20.8 nM | 14.6 nM | 2.29 nM |  |
| Cc1cc2[nH]ncc2c(-c2nccc3c2sc2nc(OC[C@]4(CN(C)C)CC4(F)F)nc(N4CCOC[C@@](C)(O)C4)c23)c1C(F)(F)F [Ex-130, (6S)-4-(2-(((R)-1-((dimethylamino)-methyl)-2,2-di-fluorocyclopropyl)-methoxy)-8-(6-methyl-5-(trifluoro-methyl)-1H-indazol-4-yl)pyrido[4′,3′: 4,5]thieno[2,3-d]pyrimidin-4-yl)-6-methyl-1,4-oxaze-pan-6-ol] | 115 nM | 101 nM | 20.3 nM | 77.2 nM | 75.2 nM | 4920 nM |  | 248 nM | 68.7 nM | 116 nM |  |  |  | 27.7 nM |
| C[C@@]1(O)COCCN(c2nc(OC[C@]3(CN4C[C@H]5CCCO[C@H]5C4)CC3(F)F)nc3sc4c(-c5c(C6(F)CC6)c(Cl)cc6[nH]ncc56)nccc4c23)C1 [Ex-255, (6S)-4-(8-(6-chloro-5-(1-fluorocyclopropyl)-1H-indazol-4-yl)-2-(((R)-2,2-difluoro-1-(((4aR,7aR)-hexahydropyrano[2,3-c]pyrrol-6(2H)-yl)methyl)cyclopropyl)metho-xy)pyrido[4′,3′:4,5]thieno[2,3-d]pyrimidin-4-yl)-6-methyl-1,4-oxazepan-6-o1] | 18.5 nM | 86.7 nM | 4.79 nM | 14.9 nM | 12.8 nM | 1390 nM |  |  |  |  | 25.3 nM | 93.3 nM | 40.1 nM |  |
